The values that follow come from publication PMC4958244 (mBio, 2016).

Broadly, the Kd is the constant that tells how readily two partners part at equilibrium.

The target of test [1] is Mucin, partially purified from porcine stomach (porcine). In words: SPR; Biacore 3000, 25°C; FN, mucin or laminin covalently immobilised on a CM5 chip by amine coupling, adhesin domain flowed over; dissociation constants in the equilibrium state. (Surface plasmon resonance follows binding to a sensor surface in real time, without labels.)
In test [2] the target is T1, N-Als3p (Candida albicans, UniProt Q59L12).
T1 construct: gene ALS3; N-terminal part (Ig-like adhesin domain); recombinant, purified from S. cerevisiae or E. coli as previously described
In words: SPR, immobilised BSA-GlcNAc. Type of test: binding. As to conditions: GlcNAc shown as BSA glycoconjugate on CM5 chip, 25°C.

The target of test [3] is T1, N-Als3p. The test can be described thus: CFG glycan array v5.[…]. Type of test: binding. To be noted: glycan printed on glass slide, N-Als3p NT-647 labelled.
A further test concerns the target T2, N-Epa1p (Nakaseomyces glabratus, UniProt Q6VBJ0).
T2 construct: gene EPA1; N-terminal PA14-like lectin domain; recombinant, purified from S. cerevisiae or E. coli as previously described
The test can be described thus: SPR inhibition of binding to immobilised mucin. As to conditions: competition with porcine stomach mucin, lactose 6 µM to 1.5 mM, 25°C.

For test [4], the target named is Laminin, from human placenta (human). In words: SPR; Biacore 3000, 25°C; FN, mucin or laminin covalently immobilised on a CM5 chip by amine coupling, adhesin domain flowed over; dissociation constants in the equilibrium state.
For the next test, the target named is Fibronectin (FN) (UniProt P02751 32-2477). Described as above. To be noted: both partners purified.
Fibronectin (FN), sequence (P02751 32-2477): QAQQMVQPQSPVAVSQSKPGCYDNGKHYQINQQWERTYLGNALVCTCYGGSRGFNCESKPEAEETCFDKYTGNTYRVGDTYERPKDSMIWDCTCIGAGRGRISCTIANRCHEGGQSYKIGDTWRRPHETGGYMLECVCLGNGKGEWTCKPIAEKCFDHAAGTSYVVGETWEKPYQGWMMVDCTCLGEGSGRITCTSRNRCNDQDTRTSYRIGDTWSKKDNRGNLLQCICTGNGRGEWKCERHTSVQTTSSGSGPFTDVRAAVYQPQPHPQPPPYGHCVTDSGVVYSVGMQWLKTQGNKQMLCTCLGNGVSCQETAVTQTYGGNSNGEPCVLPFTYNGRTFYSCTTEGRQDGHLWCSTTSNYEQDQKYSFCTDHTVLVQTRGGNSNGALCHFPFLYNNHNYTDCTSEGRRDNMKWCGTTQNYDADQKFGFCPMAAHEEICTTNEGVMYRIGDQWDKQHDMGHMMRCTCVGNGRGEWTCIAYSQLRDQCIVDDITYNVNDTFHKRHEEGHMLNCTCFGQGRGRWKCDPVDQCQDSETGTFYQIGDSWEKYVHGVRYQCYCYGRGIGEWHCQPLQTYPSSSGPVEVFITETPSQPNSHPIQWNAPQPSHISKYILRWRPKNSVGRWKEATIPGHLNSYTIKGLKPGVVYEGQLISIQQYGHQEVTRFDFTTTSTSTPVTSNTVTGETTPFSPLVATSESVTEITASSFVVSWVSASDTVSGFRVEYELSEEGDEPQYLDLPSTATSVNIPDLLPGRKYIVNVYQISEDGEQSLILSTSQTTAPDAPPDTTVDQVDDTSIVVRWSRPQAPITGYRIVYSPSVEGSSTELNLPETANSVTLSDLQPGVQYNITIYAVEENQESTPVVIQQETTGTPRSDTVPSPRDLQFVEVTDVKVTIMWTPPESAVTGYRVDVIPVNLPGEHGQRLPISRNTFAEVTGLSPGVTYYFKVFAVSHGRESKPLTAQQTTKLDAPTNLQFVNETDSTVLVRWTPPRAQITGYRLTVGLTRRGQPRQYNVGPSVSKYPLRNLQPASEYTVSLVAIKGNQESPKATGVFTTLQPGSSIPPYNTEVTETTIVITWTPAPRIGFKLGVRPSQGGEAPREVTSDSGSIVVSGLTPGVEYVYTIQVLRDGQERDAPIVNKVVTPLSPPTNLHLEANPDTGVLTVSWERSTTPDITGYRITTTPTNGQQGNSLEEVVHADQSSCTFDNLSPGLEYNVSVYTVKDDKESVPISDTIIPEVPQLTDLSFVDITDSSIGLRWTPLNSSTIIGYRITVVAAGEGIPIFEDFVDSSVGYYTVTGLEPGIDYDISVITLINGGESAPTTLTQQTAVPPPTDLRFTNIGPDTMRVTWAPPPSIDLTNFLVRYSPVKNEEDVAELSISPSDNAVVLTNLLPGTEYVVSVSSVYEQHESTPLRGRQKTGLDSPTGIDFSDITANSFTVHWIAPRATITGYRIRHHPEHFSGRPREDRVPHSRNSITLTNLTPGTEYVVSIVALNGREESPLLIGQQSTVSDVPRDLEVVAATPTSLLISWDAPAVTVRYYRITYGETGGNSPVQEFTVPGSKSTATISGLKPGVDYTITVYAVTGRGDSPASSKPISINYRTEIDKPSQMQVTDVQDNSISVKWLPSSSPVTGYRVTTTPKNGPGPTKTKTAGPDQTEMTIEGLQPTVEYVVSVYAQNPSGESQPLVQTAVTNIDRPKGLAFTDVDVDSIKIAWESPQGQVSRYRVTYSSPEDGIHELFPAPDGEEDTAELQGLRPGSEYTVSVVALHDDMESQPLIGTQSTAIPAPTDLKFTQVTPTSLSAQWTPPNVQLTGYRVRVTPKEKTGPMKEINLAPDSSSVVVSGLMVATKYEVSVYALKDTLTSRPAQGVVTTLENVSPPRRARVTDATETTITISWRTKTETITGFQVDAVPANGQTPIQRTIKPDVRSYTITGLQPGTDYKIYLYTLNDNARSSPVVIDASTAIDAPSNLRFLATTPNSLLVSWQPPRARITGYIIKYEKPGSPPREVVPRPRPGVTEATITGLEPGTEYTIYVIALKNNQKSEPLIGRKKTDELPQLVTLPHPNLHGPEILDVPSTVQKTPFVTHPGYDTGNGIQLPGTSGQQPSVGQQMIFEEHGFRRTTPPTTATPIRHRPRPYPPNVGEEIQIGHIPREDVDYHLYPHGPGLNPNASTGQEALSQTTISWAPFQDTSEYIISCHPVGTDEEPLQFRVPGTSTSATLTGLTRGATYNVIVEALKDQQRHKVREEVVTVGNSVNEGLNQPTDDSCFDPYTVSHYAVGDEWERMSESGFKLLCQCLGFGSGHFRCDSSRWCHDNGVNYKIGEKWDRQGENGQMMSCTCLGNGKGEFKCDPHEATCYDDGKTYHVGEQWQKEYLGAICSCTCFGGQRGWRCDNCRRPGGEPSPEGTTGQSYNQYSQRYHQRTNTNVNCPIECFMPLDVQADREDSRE

T2 sequence (Q6VBJ0 entry or part of it): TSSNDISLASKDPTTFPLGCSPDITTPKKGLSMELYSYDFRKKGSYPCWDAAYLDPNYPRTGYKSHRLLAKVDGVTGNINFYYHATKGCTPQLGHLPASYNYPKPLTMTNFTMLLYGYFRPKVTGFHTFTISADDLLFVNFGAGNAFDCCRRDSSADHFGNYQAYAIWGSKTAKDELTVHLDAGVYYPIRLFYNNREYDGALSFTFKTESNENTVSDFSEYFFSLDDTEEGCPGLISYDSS

“N-terminal domain of Epa1p from Candida glabrata (N-Epa1p) (domain or fragment)” registered a Kd in test [1] of 4.67 µM.

With `CC(=O)N[C@H]1C(O)O[C@H](CO)[C@@H](O)[C@@H]1O` (some centres unmarked) [GlcNAc], the “SPR, immobilised BSA-GlcNAc” value on N-Als3p [2] was “SPR experiments confirmed the binding of N-Als3p to GlcNAc”.

Turning to `CC(=O)N[C@H]1C(O)O[C@H](CO)[C@H](O)[C@@H]1O[C@@H]1O[C@H](CO)[C@H](O)[C@H](O)[C@H]1O` (some centres unmarked) [T antigen], the “CFG glycan array v5.0” value at N-Als3p [3] (200 and 20 µg/ml) is “N-Als3p bound also to the T antigen”.

As to `OC[C@H]1O[C@@H](O[C@H]2[C@H](O)[C@@H](O)C(O)O[C@@H]2CO)[C@H](O)[C@@H](O)[C@H]1O` (some centres unmarked) [lactose], at N-Epa1p, the “SPR inhibition of binding to immobilised mucin” value is on record as “binding of N-Epa1p to mucin could be blocked by lactose in a concentration-dependent manner”.

As for `CC(=O)N[C@H]1[C@H](O[C@H]2[C@@H](O)[C@@H](CO)OC(O)[C@@H]2NC(C)=O)O[C@H](CO)[C@@H](O)[C@@H]1O` (some centres unmarked) [GlcNAcβ-1,3GalNAc], the “CFG glycan array v5.0” value on N-Als3p [3] (200 µg/ml) was “GlcNAcβ-1,3GalNAc and Fucα-1,2-Galβ-1,3-GalNAcβ-1,3-Gal were also recognized”.

In test [4], “N-terminal part of Als3p from Candida albicans (N-Als3p) (domain or fragment)” displayed a Kd of 410 µM.

Consider `CC(=O)N[C@H]1[C@H](O[C@H]2[C@@H](O)[C@@H](CO)OC(O)[C@@H]2O)O[C@H](CO)[C@H](O)[C@@H]1O[C@@H]1O[C@H](CO)[C@H](O)[C@H](O)[C@H]1O[C@@H]1O[C@@H](C)[C@@H](O)[C@@H](O)[C@@H]1O` (some centres unmarked) [Fucα-1,2-Galβ-1,3-GalNAcβ-1,3-Gal], for which the “CFG glycan array v5.0” value on N-Als3p [3] (200 µg/ml) is “GlcNAcβ-1,3GalNAc and Fucα-1,2-Galβ-1,3-GalNAcβ-1,3-Gal were also recognized”.

B1: N-terminal part of Als3p from Candida albicans (N-Als3p) (domain or fragment)
chain: KTITGVFNSFNSLTWSNAATYNYKGPGTPTWNAVLGWSLDGTSASPGDTFTLNMPCVFKFTTSQTSVDLTAHGVKYATCQFQAGEEFMTFSTLTCTVSNTLTPSIKALGTVTLPLAFNVGGTGSSVDLEDSKCFTAGTNTVTFNDGGKKISINVDFERSNVDPKGYLTDSRVIPSLNKVSTLFVAPQCANGYTSGTMGFANTYGDVQIDCSNIHVGITKGLNDWNYPVSSESFSYTKTCSSNGIFITYKNVPAGYRPFVDAYISATDVNSYTLSYANEYTCAGGYWQRAPFTLRWTGYRNSDAGSNGIVIVATTRTVTDSTTAVTTLPFDPNRDKTKTIEILKPIPTTTITTSYVGVTTSYSTKTAPIGETATVIVDIPYHTTTTVTSKWTGTITSTTTHTNPTDSIDTVIVQVP
modifications: Secreted from S. cerevisiae, C-terminal His tag omitted. The strain of the allele is not given; the SC5314 reference entry is used. Limits 18-432 are printed in Text S1.
In the case of B1, the Kd with Fibronectin (FN) was 10 ± 1 µM.
